The values that follow come from paper PMC6829517 (International Journal of Molecular Sciences, 2019).

The conditions of data set [1]: cited from earlier work. The procedure: (§1) Moreover, it is stable to highly denaturing conditions, such as 8 M urea and temperatures above 100 °C [6].
Data set [2] relates to chymotrypsin, trypsin and pepsin. Particulars: cited from earlier work. The procedure: as §1
Data set [3] concerns the target pepsin (Sus scrofa, UniProt P00791). The following applies: for Hydrolysis by pepsin at 37 °C: pepsin 1 mg/mL in HCl 0.01 M, pH 2, 37 °C, several hours, LC-MS; for Cleavage by pepsin at 50 °C: pH 2, 50 °C, 19 h, RP-HPLC. An excerpt:
Materials and reagents. Methanol was purchased from Scharlau, while acetonitrile was obtained from SDS. NaOH, 2,2,2-trifluoroethanol, pepsin, thermolysin were obtained from Sigma-Aldrich, while carboxypeptidase Y was purchased from Alfa Aesar. E. coli BL21 (DE3), which was used for heterologous expression, was purchased from Invitrogen. Bacterial strains were isolated from clinical specimens in the Microbiology Service of the Hospital Universitari de Bellvitge (Spain).
Collistin sulfate was supplied by Zhejiang Shenghua Biok Biology Co. LTD, China. Mueller-Hinton Broth (MHB) was obtained from Scharlau (Spain). […]
Then, 30 µL of NaOH 0.5 M (pH 12) was added, and the mixture was stirred overnight at 40 °C. […]
Pepsin. Purified peptide (20 µg) was dissolved in 150 µL HCl 0.01 M (pH 2). 40 µL of pepsin solution in HCl 0.01 M (1 mg/mL) was added to the peptide solution and incubated for 2-20 h at […]

The target in data set [4] is T1, thermolysin (Bacillus thermoproteolyticus, UniProt P00800).
T1 construct: purchased Sigma-Aldrich
The data set is described as follows: Thermolysin stability assay. Format: in vitro ADME. Particulars: thermolysin 1 mg/mL, 50 mM Tris pH 8, 0.5 mM CaCl2, 30 min at 70 °C, LC-MS; loss of 137 Da (Val11-Gly12). The method, then: Materials and reagents. Methanol was purchased from Scharlau, while acetonitrile was obtained […]
while carboxypeptidase Y was purchased from Alfa Aesar. E. coli BL21 (DE3), which was used for heterologous expression, was purchased from Invitrogen. Bacterial strains were isolated from […]
Hinton Broth (MHB) was obtained from Scharlau (Spain).
10 µL of 0.5 M NaOH was added.
LC-MS. […] For the isolation and […]
in 400 µL of H 2O-ACN (1:1). […]
was stirred overnight at 40 °C.
MES, 1 mM CaCl 2 at pH 6.75).
The reaction was quenched by
Pepsin. […] 40 µL of pepsin
Figure S6. RP-HPLC chromatograms and ESI + spectra after 30 min of thermolysin treatment at 70 °C in 50 mM TRIS pH 8, 0.5 mM CaCl 2 buffer. a) New compound, b) native MccJ25 and c) co-injection of the two peptides after the thermolysin cleavage. Conditions: XBridge C18 2.5 µm (4.6 mm x 75 mm) reversed-phase analytical column; linear gradient from 30% to 60% of ACN over 8 […]

Another data set deals with Bacterial biofilms. The data set is described as follows: Minimal biofilm eradication concentration (MBEC). Format: cell-based. Particulars: in all cases; peg-lid biofilms, MHBCA, 24 h exposure at 37 °C, OD 620 nm, triplicate. The method, then:
MBEC was determined as described by Moskowitz et al.. Bacterial biofilms were formed by immersing the pegs of a modified polystyrene microtiter lid into 96-well microtiter plates, each containing 200 µL of Muller-Hinton broth cation adjusted (MHBCA), followed by incubation at 37 °C for 24 h. Pegs were then gently rinsed in a 0.9% w/v NaCl solution and biofilms were exposed to a range of concentrations of antimicrobials for 24 h at 37 °C. Pegs were again rinsed with a 0.9% w/v NaCl solution and biofilms were removed by 10 min sonication. Recovered bacteria were incubated for 24 h at 37 °C. Optical densities at 620 nm were measured in order to determine MBEC values, defined as the lowest concentration of antimicrobial that prevented bacterial regrowth from the treated biofilm. All experiments were performed in triplicate.

The subject of data set [5] is Escherichia coli MDR 208691. Format: cell-based. Particulars: MDR 208691, 24 h. The procedure: (§2) All experiments were performed in triplicate.
For data set [6], the system named is Escherichia coli MDR 239910. Format: cell-based. Particulars: MDR 239910, 24 h. The method, then: as §2
Data set [7] has as its system Salmonella typhimurium SY5015. The class given is cell-based. The following applies: murium SY5015, 24 h. The method, then: as §2
Data set [8] deals with Escherichia coli MDR 39255. The class given is cell-based. The following applies: MDR 39255, 24 h. The procedure:
as §2

The subject of data set [9] is Salmonella enterica ATCC 49214. The following applies: broth microdilution, MHB, 37 °C, 24 h, visual turbidity, triplicate. The method, then: (§3) MIC values were determined by the broth microdilution method and interpreted following the guidelines of the Clinical & Laboratory Standards Institute (CLSI) and European Committee on Antimicrobial Susceptibility Testing (EUCAST). The different strains were grown in Mueller-Hinton broth (MHB) overnight at 37 °C with shaking at 200 rpm. The bacterial cultures were then adjusted to OD625nm of 0.08–0.1 and diluted 1:100 in fresh MHB medium. Next, 5 µL of each diluted suspension was added to 96-well plates previously filled with MHB and serially diluted peptides. […] All experiments were performed in triplicate.

In data set [10] the test system is Salmonella enterica ATCC 13076. Particulars: broth microdilution, MHB, 37 °C, 24 h, visual turbidity, triplicate. The procedure:
as §3
On the technique in general: In broth dilution the organism is exposed to a series of concentrations in liquid medium.

Data set [11] deals with Escherichia coli MDR 246415. Format: cell-based. Particulars: MDR 246415, 24 h. The procedure: as §2
Data set [12] deals with eight Gram-negative strains. Briefly: MIC, broth microdilution. Format: cell-based. The following applies: all eight strains tested; summary of Table 1. The procedure: as §2
In data set [13] the test system is pepsin. The data set is described as follows: pepsin, temperature increased to 50 °C. The following applies: up to 19 h.
The test system of data set [14] is pepsin. The data set is described as follows: pepsin solution in HCl 0.01 M (pH 2). Particulars: 37 °C, up to 2-20 h.
For another data set, the system named is carboxypeptidase Y. Briefly: carboxypeptidase Y solution in MES buffer (50 mM MES, 1 mM CaCl2 at pH 6.75). The following applies: 25 °C, up to 4 h.
Data set [15] deals with thermolysin. Briefly: thermolysin in 50 mM TRIS pH 8, 0.5 mM CaCl2 buffer. The following applies: 70 °C, up to 30 min.
For data set [16], the system named is pepsin. The following applies: cited from earlier work.
Data set [17] in a line: 0.5 M NaOH in H2O-ACN (1:1). Particulars: 40 °C, up to 48 h.
The next data set relates to chymotrypsin. The following applies: cited from earlier work.
For a further data set, the system named is trypsin. Particulars: cited from earlier work.

≈ marks a conversion by molar mass, not a printed value. Entries after “also recorded” stand apart in the source; their conditions may differ. Like-named read-outs stand apart in the source and are kept apart here. Positions of bridges follow the written chain, without caps; N, C: chain ends. Non-standard residues stand in square brackets, D forms with d. Residues, ends and D or L forms follow the SMILES beside them.

Chain of pepsin (Sus scrofa, UniProt P00791) (P00791 60-385): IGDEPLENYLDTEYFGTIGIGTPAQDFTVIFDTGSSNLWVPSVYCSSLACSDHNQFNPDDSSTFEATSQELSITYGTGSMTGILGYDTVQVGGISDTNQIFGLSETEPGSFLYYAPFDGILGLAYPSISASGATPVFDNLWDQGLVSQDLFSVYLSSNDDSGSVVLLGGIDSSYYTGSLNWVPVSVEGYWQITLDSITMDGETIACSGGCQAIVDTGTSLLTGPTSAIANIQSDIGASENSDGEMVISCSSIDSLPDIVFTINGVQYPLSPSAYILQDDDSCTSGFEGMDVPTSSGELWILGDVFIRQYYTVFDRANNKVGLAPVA
T1 sequence (P00800 233-548): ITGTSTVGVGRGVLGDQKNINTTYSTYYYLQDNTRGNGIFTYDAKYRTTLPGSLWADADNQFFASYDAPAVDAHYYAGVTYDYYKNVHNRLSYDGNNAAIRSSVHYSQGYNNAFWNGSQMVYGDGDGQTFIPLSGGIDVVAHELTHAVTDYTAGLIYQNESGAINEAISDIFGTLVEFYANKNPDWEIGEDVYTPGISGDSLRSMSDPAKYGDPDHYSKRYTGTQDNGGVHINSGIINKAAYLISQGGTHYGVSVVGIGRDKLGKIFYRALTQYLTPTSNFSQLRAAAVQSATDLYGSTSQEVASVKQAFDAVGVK

As for `CC[C@H](C)[C@H](NC(=O)CNC(=O)[C@@H](NC(=O)[C@H](Cc1ccccc1)NC(=O)[C@H](Cc1ccc(O)cc1)NC(=O)[C@@H]1CCC(=O)NCC(=O)NCC(=O)N[C@@H](C)C(=O)NCC(=O)N[C@@H](Cc2cnc[nH]2)C(=O)N[C@@H](C(C)C)C(=O)N2CCC[C@H]2C(=O)N1)C(C)C)C(=O)NCC(=O)N[C@H](C(=O)N1CCC[C@H]1C(=O)N[C@H](C(=O)N[C@@H](CO)C(=O)N[C@@H](Cc1ccccc1)C(=O)N[C@@H](Cc1ccc(O)cc1)C(=O)NCC(=O)O)[C@@H](C)CC)[C@@H](C)O` [Native MccJ25, Microcin J25] (GGAGHVPEYFVGIGTPISFYG-OH; lactam N-8), the “Stability to highly denaturing conditions” value in data set [1] is “stable”. The “Thermal and proteolytic stability against several proteases” value in data set [2] is “high thermal and proteolytic stability”. On pepsin [3], the “Hydrolysis by pepsin at 37 °C” value is on record as “no hydrolysis was observed” and the “Cleavage by pepsin at 50 °C” value is “no cleavage was detected”. Moreover, at thermolysin [4], the “Outcome of thermolysin treatment” value is “double cleavage between Phe10-Val11 and Gly12-Ile13”.

As to `CC[C@H](C)[C@H](NC(=O)CNC(=O)[C@@H](NC(=O)[C@H](Cc1ccccc1)NC(=O)[C@H](Cc1ccc(O)cc1)NC(=O)[C@@H]1CCC(=O)NCC(=O)NCC(=O)N[C@@H](C)C(=O)NCC(=O)N[C@@H](Cc2c[nH]cn2)C(=O)N[C@@H](C(C)C)C(=O)N2CCC[C@H]2C(=O)N1)C(C)C)C(=O)NCC(=O)N[C@H](C(=O)N1CCC[C@H]1C(=O)N[C@H](C(=O)N[C@@H](CO)C(=O)N[C@@H](Cc1ccccc1)C(=O)N[C@@H](Cc1ccc(O)cc1)C(=O)NCC(=O)O)[C@@H](C)CC)[C@@H](C)O` [Native MccJ25, Microcin J25] (GGAGHVPEYFVGIGTPISFYG-OH; lactam N-8), in the data set with Bacterial biofilms, the “Minimal biofilm eradication concentration (MBEC)” value is listed as “greater than 128 μg/mL”. The “Minimum inhibitory concentration (MIC)” value is given as above 128 µg/mL in data set [5]; above 128 µg/mL in [6]; above 128 µg/mL in data set [7]; 0.5 µg/mL (≈ 0.237 µM) in data set [8]; 0.8 µg/mL (≈ 0.38 µM) in data set [9]; below 0.0625 µg/mL in [10].

With `CC[C@H](C)[C@H](NC(=O)CNC(=O)[C@H](NC(=O)[C@H](Cc1ccccc1)NC(=O)[C@H](Cc1ccc(O)cc1)NC(=O)[C@@H]1CCC(=O)NCC(=O)NCC(=O)N[C@@H](C)C(=O)NCC(=O)N[C@@H](Cc2c[nH]cn2)C(=O)N[C@@H](C(C)C)C(=O)N2CCC[C@H]2C(=O)N1)C(C)C)C(=O)NCC(=O)N[C@H](C(=O)N1CCC[C@H]1C(=O)N[C@H](C(=O)N[C@@H](CO)C(=O)N[C@@H](Cc1ccccc1)C(=O)N[C@@H](Cc1ccc(O)cc1)C(=O)NCC(=O)O)[C@@H](C)CC)[C@@H](C)O` [New Compound] (GGAGHVPEYF[dV]GIGTPISFYG-OH; lactam N-8), in the data set on Bacterial biofilms, the “Minimal biofilm eradication concentration (MBEC)” value is given as “greater than 128 μg/mL”. Moreover, the “Hydrolysis by pepsin at 37 °C” value on pepsin [3] is given as “no hydrolysis was observed”. Further, the “Cleavage by pepsin at 50 °C” value on pepsin [3] was “no cleavage was detected”. The “Minimum inhibitory concentration (MIC)” value in data set [5] is above 128 µg/mL; in data set [6], above 128 µg/mL; in [7] it was above 128 µg/mL; in data set [8], above 256 µg/mL; in [11], above 128 µg/mL. In addition, the “MIC values in all cases” value in data set [12] is listed as “higher than 128 μg/mL”. Moreover, at thermolysin [4], the “Outcome of thermolysin treatment” value was “double cleavage between Phe10-Val11 and Gly12-Ile13”.

As to GGAGHVPEYFVGIGTPISFYG [new compound], the not cleaved result with pepsin [13] is “no cleavage was detected after 19 h”; in the data set with pepsin [14], “no hydrolysis was observed, even after several hours at pH 2 at 37 °C”. The cleaved bond entry with carboxypeptidase Y is reported as “Phe10-Val11; also recorded: Val11-Gly12”; with thermolysin [15], “Phe10-Val11; also recorded: Gly12-Ile13”.

On to GGAGHVPEYFVGIGTPISFYG [MccJ25], for which the not cleaved result was “no cleavage was detected after 19 h” with pepsin [13]; “no hydrolysis was observed, even after several hours at pH 2 at 37 °C” in the data set with pepsin [14]; “high thermal and proteolytic stability” in the data set with pepsin [16]; “high thermal and proteolytic stability” in the data set on chymotrypsin; “high thermal and proteolytic stability” with trypsin. Further, the cleaved bond result in the data set on carboxypeptidase Y is given as “Phe10-Val11; also recorded: Val11-Gly12”; in the data set on thermolysin [15], “Gly12-Ile13; also recorded: Phe10-Val11”. In addition, the fragment found result in [17] is “new compound (epimerization of Val11)”.
